US8691799B2, “Materials and methods for treatment of cancer and identification of anti-cancer compounds” (priority 2001, dated 2014)

Assays:
phospho-JNK = assay: Western blotting for phospho-JNK; assay type: cell-based, human; settings: A549 and MDA-MB-468 cells, up to 10 μM
Description: (§1) Western Blotting. Treated cell samples were lysed in 30 mM Hepes, pH 7.5, 10 mM NaCl, 5 mM MgCl2, 25 mM NaF, 1 mM EGTA, 1% Triton-X-100, 10% glycerol, 2 mM sodium orthovanadate, 10 μg/ml aprotinin, 10 μg/ml soybean trypsin inhibitor, 25 μg/ml leupeptin, 2 mM PMSF, and 6.4 mg/ml p-nitrophenylphosphate. Phospho-STAT3, phospho-AKT, phospho-MEK, and phospho-p42/p44 MAPK antibodies were obtained from Cell Signaling Technologies, Cambridge, Mass. Antibodies to STAT3, JAK2, and phospho-INK were purchased from Santa Cruz Biotechnology, Santa Cruz, Calif. Phospho-JAK2 antibody came from Upstate Biotechnology, Lake Placid, N.Y. Membranes were blocked in either 5% milk in PBS, pH 7.4, containing 0.1% Tween-20 (PBS-T) or 1% BSA in TBS, pH 7.5, containing 0.1% Tween-20 (TBS-T). Phospho-specific antibodies (excepting P-MAPK and P-JNK) were incubated in 1% BSA in TBS-T while all other antibodies were diluted in 5% milk in PBS-T for either 2 hr at room temperature or overnight at 4° C. HRP-conjugated secondary antibodies (Jackson ImmunoResearch) were diluted in 5% milk in either PBS-T or TBS-T at 1:1000 dilution for one hour at room temperature. Western blots were visualized using enhanced chemiluminescence as described previously (Blaskovich, M. A. et al. Nat. Biotechnol., 2000, 18:1065-1070).

phospho-Akt = assay: Western blotting for phospho-Akt; assay type: cell-based, human; settings: A549 and MDA-MB-468 cells, up to 10 μM
Description: as §1

[1] = tested on: SRE-dependent pRLSRE renilla luciferase reporter; assay: SRE-dependent luciferase reporter assay in v-Src/NIH 3T3 fibroblasts; assay type: cell-based, murine; settings: 10 μM, 24-48 hr
Description: DNA Binding and Transcription. The STAT3 reporter, pLucTKS3, driving expression of firefly luciferase has been previously described (Turkson, J. et al. Mol. Cell Biol., 1999, 19:7519-7528). The pLucTKS3 plasmid harbors seven copies of a sequence corresponding to the STAT3-specific binding site in the promoter of the human C-reactive protein gene (Zhang, D. et al. J. Biol. Chem., 1996, 271:9503-9509). The STAT3-independent plasmid, pRLSRE, contains two copies of the serum response element (SRE) from the c-fos promoter (Yamauchi, K. et al. J. Biol. Chem., 1993, 268:14597-14600), subcloned into renilla luciferase reporter, pRL-null (Promega Corporation, Madison, Wis.).
Transfection and Generation of Stable Clones. […]
Preparation of Cytosolic Extracts. […] Cells were resuspended in 0.4 ml of low-salt HEPES buffer (10 mM HEPES, pH 7.8, 10 mM KCl, 0.1 mM EGTA, 0.1 mM EDTA, 1 mM PMSF, and 1 mM DTT) for 15 min, lysed by the addition of 20 μl of 10% NP-40, and centrifuged (10,000×g, 30 sec, 4° C.) to obtain the cytosolic supernatant, which was used for luciferase assays (Promega Corporation) measured with a luminometer.

Calu-1 tumors = assay: Antitumor activity, Calu-1 xenograft in nude mice; assay type: in vivo; settings: 1 mg/kg/day i.p.
Description: Antitumor Activity in the Nude Mouse Tumor Xenograft Model. Nude mice and C57 BL-6 black mice (National Cancer Institute, Bethesda, Md.) were maintained in accordance with the Institutional Animal Care and Use Committee (IACUC) procedures and guidelines. v-Src- and oncogenic H-Ras-transformed NIH 3T3, A549, MDA-MB-468 and Calu-1 cells were harvested, resuspended in PBS and injected s.c. into the right and left flank (10×10^6 cells per flank) of 8 week old female nude mice as reported previously (Sun, J. et al. Cancer Res., 1999, 59:4919-4926). Similarly, murine B16-F10 Melanoma cells were injected s.c. into the right and left flank (10^6 cells per flank) of C57 black mice. When tumors reached about 150 mm^3, animals were randomized (five animals per group; two tumors per animal) and dosed i.p. with 0.2 ml once daily. Control animals received DMSO (20%) vehicle whereas treated animals were injected with JSI-124 (1 mg/kg/day) in 20% DMSO in water. The tumor volumes were determined by measuring the length (l) and the width (w) and calculating the volume (V=1w^2/2) as described previously (Sun, J. et al. Cancer Res., 1999, 59:4919-4926). Statistical significance between control and treated animals were evaluated by using Student's t-test. […] Percent surviving mice was determined by monitoring the death of mice until all mice died. […]

phosphotyrosine JAK2 = assay: Western blotting for phosphotyrosine JAK2; assay type: cell-based, human
Description: as §1

JAK2 = assay: Western blotting for JAK2 protein levels; assay type: cell-based, human; settings: A549 and MDA-MB-468 cells
Description: as §1

For `CC(C)(O)/C=C/C(=O)[C@](C)(O)[C@H]1[C@H](O)C[C@@]2(C)[C@@H]3CC=C4[C@@H](C=C(O)C(=O)C4(C)C)[C@]3(C)C(=O)C[C@]12C` [JSI-124, cucurbitacin I], the phospho-JNK levels (phospho-JNK) was “no inhibitory effect”, the phospho-Akt levels (phospho-Akt) was “no inhibitory effect” and the “pRLSRE (SRE-dependent) luciferase reporter” value [1] was “without affecting”. For the same molecule, the “effect on growth of Calu-1 tumors” value (Calu-1 tumors) was “little effect”, the “levels of tyrosine phosphorylated JAK2” value (phosphotyrosine JAK2; A549 and MDA-MB-468 cells, various concentrations, 4 hr) was “effective at suppressing the levels of tyrosine phosphorylated JAK2” and the “inhibition of phospho JAK2 levels (in words)” value (phosphotyrosine JAK2; A-549 cells, 0-10 μM) was “inhibits both phospho STAT3 and phospho JAK2 levels”. The IC50 (phosphotyrosine JAK2; A-549 cells, Western blotting, read-out: IC50 for phospho-JAK2) was 200 nM and the JAK2 protein levels (JAK2) was “no effect on the protein levels of STAT3 and JAK2”.
